Values joined by “and” are separate entries in the source; they are usually repeats but may differ in a detail not shown here. Equal values may be shown once.
Key:
Format in all cases: in vivo
red clover [1] = test: Test Example 5: phytotoxicity of soil irrigation treatment on red clover; conditions: 2000 ppm, symptom growth inhibition
Experimental: (§1) The red clover seeds were sowed in a pot packed with soil (1/10000 ares) and Orobanche minor seeds were sowed around the red clover seeds, followed by cultivation in a greenhouse. After 10, 20 and 30 days of the sowing, agent liquid prepared into a predetermined concentration was irrigation-treated at a ratio of 20 ml/pot.

Orobanche minor [2] = test: Test Example 4: seed soaking treatment, parasitism of Orobanche minor on red clover; conditions: for S4 bud formation per root / Average parasitism frequency per root: seed soaking 24 h; for S4 bud formation per root: untreated plot 0.45; for Average parasitism frequency per root: untreated plot 2.08
Experimental: Red clover seeds were soaked for 24 hours in agent liquid which had been prepared into a predetermined concentration. The red clover seeds were sowed in a pot packed with soil (1/10000 ares) and Orobanche minor seeds were sowed around the red clover seeds, followed by cultivation in a greenhouse. Growth of the red clover and the parasitism frequency and growth of Orobanche minor were observed by visual observation.

Orobanche minor [3] = test: Test Example 6: foliage application treatment, parasitism of Orobanche minor on red clover; conditions: for Average parasitism frequency per root: foliage application at 10, 20 and 30 days after sowing, untreated plot 2.08; for S4 bud formation per root: untreated plot 0.45
Text: (§2) The red clover seeds were sowed in a pot packed with soil (1/10000 ares) and Orobanche minor seeds were sowed around the red clover seeds, followed by cultivation in a greenhouse. After 10, 20 and 30 days of the sowing, sufficient amount of agent liquid diluted to a predetermined concentration with water was applied to the foliage using an atomizer, from single- to double-leaf stage of the red clover.

Orobanche minor [4] = test: Test Example 5: soil irrigation treatment, parasitism of Orobanche minor on red clover; conditions: for Average parasitism frequency per root: soil irrigation 20 ml/pot at 10, 20 and 30 days after sowing, untreated plot 2.08; for S4 bud formation per root: untreated plot 0.45
Experimental: as §1

Orobanche minor [5] = test: Test Example 2: soil irrigation treatment, parasitism of Orobanche minor on red clover; conditions: for Average parasitism frequency per root: soil irrigation 20 ml/pot at 10, 20 and 30 days after sowing, untreated plot 2.55; for S4 bud formation per root: untreated plot 0.52
Experimental: The red clover seeds were sowed in a pot packed with soil (1/10000 ares) and Orobanche minor seeds were sowed around the red clover seeds, followed by cultivation in a greenhouse. After 10, 20 and 30 days of the sowing, an agent liquid prepared into a predetermined concentration was irrigation-treated at a ratio of 20 ml/pot.

Orobanche minor [6] = test: Test Example 1: seed soaking treatment, parasitism of Orobanche minor on red clover; conditions: for Average parasitism frequency per root / S4 bud formation per root: seed soaking 24 h; for Average parasitism frequency per root: red clover host, untreated plot 2.55; for S4 bud formation per root: untreated plot 0.52
Experimental: Red clover seeds were soaked for 24 hours in agent liquid which had been prepared into a predetermined concentration. The red clover seeds were sowed in a pot packed with soil (1/10000 ares) and Orobanche minor seeds were sowed around the red clover seeds, followed by cultivation in a greenhouse. Growth of the red clover and the parasitism frequency and growth of Orobanche minor were observed by visual observation. The growth of Orobanche minor was evaluated based on the following four steps. [table]

Orobanche minor [7] = test: Test Example 3: foliage application treatment, parasitism of Orobanche minor on red clover; conditions: for Average parasitism frequency per root: foliage application at 10, 20 and 30 days after sowing, untreated plot 2.55; for S4 bud formation per root / parasitism frequency: foliage application; for S4 bud formation per root: untreated plot 0.52
Text: as §2

red clover [8] = test: Test Example 3: effect of foliage application on the host red clover
Text: as §2

parasitic plant = test: Parasitic plant controlling activity (general statement); conditions: general statement in the description
[9] = seed soaking, all treatment plots (200 and 20 ppm)

N#Cc1ccccc1NC(=O)c1snc(Cl)c1Cl [CICA, N-(2-cyanophenyl)-3,4-dichloroisothiazole-5-carboxamide]
phytotoxicity (red clover [1]): weak
S4 bud formation per root (Orobanche minor [2]; 20 ppm): 0.11 per root
Average parasitism frequency per root (Orobanche minor [2]; 20 ppm): 1.36 per root
S4 bud formation per root (Orobanche minor [2]; 200 ppm): 0.09 per root
Average parasitism frequency per root (Orobanche minor [2]; 200 ppm): 1.15 per root
S4 bud formation (Orobanche minor [2]; [9]): decreasing tendency
total parasitism frequency of Orobanche minor (Orobanche minor [2]; [9]): decreasing tendency
Average parasitism frequency per root (Orobanche minor [3]; 20 ppm): 3.01 per root
Average parasitism frequency per root (Orobanche minor [3]; 200 ppm): 2.05 per root
Average parasitism frequency per root (Orobanche minor [3]; 2000 ppm): 0.44 per root
S4 bud formation per root (Orobanche minor [3]; foliage application, 20 ppm): 0.60 per root
parasitism frequency decreasing tendency (Orobanche minor [3]; foliage application, 200 ppm or less): unclear
S4 bud formation per root (Orobanche minor [3]; foliage application, 200 ppm): 0.25 per root
S4 bud formation (Orobanche minor [3]; foliage application, 2000 and 200 ppm): decreasing tendency
parasitism frequency (Orobanche minor [3]; foliage application, 2000 ppm): decreasing tendency
S4 bud formation per root (Orobanche minor [3]; foliage application, 2000 ppm): 0.03 per root
Average parasitism frequency per root (Orobanche minor [4]; 20 ppm): 1.99 per root
Average parasitism frequency per root (Orobanche minor [4]; 200 ppm): 1.39 per root
Average parasitism frequency per root (Orobanche minor [4]; 2000 ppm): 0.15 per root
S4 bud formation per root (Orobanche minor [4]; soil irrigation, 20 ppm): 0.10 per root
S4 bud formation per root (Orobanche minor [4]; soil irrigation, 200 ppm): 0.09 per root
parasitism frequency (Orobanche minor [4]; soil irrigation, 2000 and 200 ppm): reducing tendency
S4 bud formation per root (Orobanche minor [4]; soil irrigation, 2000 ppm): 0.04 per root
S4 bud formation (Orobanche minor [4]; soil irrigation, all treatment plots): reduced

O=C(O)c1ccnc(Cl)c1 [INA, 2-chloroisonicotinic acid]
Average parasitism frequency per root (Orobanche minor [5]; 2 ppm): 1.49 per root
Average parasitism frequency per root (Orobanche minor [5]; 20 ppm): 1.03 per root
S4 bud formation per root (Orobanche minor [5]; soil irrigation, 2 ppm): 0.07 per root
S4 bud formation per root (Orobanche minor [5]; soil irrigation, 20 ppm): 0.08 per root
parasitism frequency (Orobanche minor [5]; soil irrigation, 200 ppm): slightly lowered
reduction of the S4 (bud formation) (Orobanche minor [6]; seed soaking): large
Average parasitism frequency per root (Orobanche minor [6]; 20 ppm): 2.28 per root
S4 bud formation per root (Orobanche minor [6]; 20 ppm): 0.22 per root
Average parasitism frequency per root (Orobanche minor [6]; 200 ppm): 1.03 per root
S4 bud formation per root (Orobanche minor [6]; 200 ppm): 0.02 per root
number of total parasitized cases of Orobanche minor (Orobanche minor [6]; seed soaking, 200 ppm): reducing tendency
Average parasitism frequency per root (Orobanche minor [7]; 2 ppm): 0.99 per root
Average parasitism frequency per root (Orobanche minor [7]; 20 ppm): 0.94 per root
S4 bud formation per root (Orobanche minor [7]; 2 ppm): 0.05 per root
S4 bud formation per root (Orobanche minor [7]; 20 ppm): 0.03 per root
parasitism frequency (Orobanche minor [7]; concentration not given): lowered
growth of the host (red clover [8]; 200 ppm treatment plot): inhibited

C=CCOC1=NS(=O)(=O)c2ccccc21 [PBZ, probenazole]
Average parasitism frequency per root (Orobanche minor [5]; 2 ppm): 2.47 per root
Average parasitism frequency per root (Orobanche minor [5]; 20 ppm): 3.17 per root
Average parasitism frequency per root (Orobanche minor [5]; 200 ppm): 1.52 per root
S4 bud formation per root (Orobanche minor [5]; soil irrigation, 2 ppm): 0.13 per root
S4 bud formation per root (Orobanche minor [5]; soil irrigation, 20 ppm): 0.08 per root
S4 bud formation per root (Orobanche minor [5]; soil irrigation, 200 ppm): 0.08 per root
Average parasitism frequency per root (Orobanche minor [6]; 20 ppm): 1.50 per root
S4 bud formation per root (Orobanche minor [6]; 20 ppm): 0.28 per root
Average parasitism frequency per root (Orobanche minor [6]; 200 ppm): 1.59 per root
S4 bud formation per root (Orobanche minor [6]; 200 ppm): 0.29 per root
Average parasitism frequency per root (Orobanche minor [7]; 20 ppm): 2.24 per root
Average parasitism frequency per root (Orobanche minor [7]; 200 ppm): 1.75 per root
S4 bud formation per root (Orobanche minor [7]; 20 ppm): 0.16 per root
S4 bud formation per root (Orobanche minor [7]; 200 ppm): 0.18 per root

O=C(O)c1ccccc1O [SA, salicylic acid]
Average parasitism frequency per root (Orobanche minor [5]; 2 ppm): 1.75 per root
Average parasitism frequency per root (Orobanche minor [5]; 20 ppm): 2.47 per root
S4 bud formation per root (Orobanche minor [5]; soil irrigation, 2 ppm): 0.06 per root
S4 bud formation per root (Orobanche minor [5]; soil irrigation, 20 ppm): 0.03 per root
Average parasitism frequency per root (Orobanche minor [6]; 20 ppm): 2.09 per root
S4 bud formation per root (Orobanche minor [6]; 20 ppm): 0.38 per root
Average parasitism frequency per root (Orobanche minor [6]; 200 ppm): 2.17 per root
S4 bud formation per root (Orobanche minor [6]; 200 ppm): 0.44 per root
Average parasitism frequency per root (Orobanche minor [7]; 2 ppm): 1.91 per root
S4 bud formation per root (Orobanche minor [7]; 2 ppm): 0.17 per root
S4 bud formation per root (Orobanche minor [7]; 20 ppm): 0.38 per root
parasitism frequency (Orobanche minor [7]; 200 ppm): large
red clover withered (fraction of plants per pot) (red clover [8]; first treatment with 200 ppm, two pots): 4/6 and 1/5
parasitic plant controlling activity (parasitic plant): not so high

From patent US20100009853A1, “PARASITIC PLANT CONTROL AGENT AND USE THEREOF” (Nihon Nohyaku Co., Ltd, priority 2006, published 2010)
